Structures are written as SMILES.

What is called IC50 is the concentration that inhibits the measured activity by half. As a reminder, the IC90 is the concentration at which the effect reaches the 90% level.

Common to all, as to assay type: cell-based, human
Assay [1] deals with XG12 myeloma cell line. Description: Cell proliferation assay (tritiated thymidine incorporation), XG12. As to conditions: Homo sapiens, XG12, alone or with fixed Velcade/Melphalan. As to the method: (§1) Myeloma cells were harvested in the exponential growth phase (at day 3 after culture passage when the cell concentration is around 5×10^5 cells/ml). Cells were washed twice, cultured for 3 hours in RPMI1640 and 10% FCS, washed twice. This makes it possible to remove cell-bound growth factors (in particular recombinant IL-6). Then cells are plated in 96-well flat-bottomed microplates at various concentrations depending on their doubling time: • 5×10^3 cells/well in 100 μl for the cell lines: XG-1, XG-7 • 10^4 cells/well in […] for the cell lines: XG-2, XG-4, XG-6, XG-11, PRMI8226, L363 • 2×10^4 cells/well in 100 μl for the cell lines: XG-3, XG-12, XG-13, XG-14, XG-19, XG-20
(§2) The culture medium used were: • PRMI1640, 10% FCS and 0.5 ng/ml of IL-6 for XG-1, XG-2, XG-3, XG-4, XG-6, XG-7, XG-11, XG-12, XG-13, XG-19, XG-20 cells • X-VIVO20 and 0.5 ng/ml IL-6 for XG-14 cells • PRMI1640 and 10% FCS for RPMI8226 and L363 cells
(§3) The diluted compounds, DMSO or control culture medium were added in 100 μl at the start of the culture. Three culture wells were done for one compound dilution and the experiments were done twice (finally six culture wells for one compound dilution).
(§4) Cells were cultured for 4 days. Eight hours before the end of the culture, 0.5 μCi of tritiated thymidine were added in 50 μl of RPMI1640 and 10% FCS. Cells were then extracted with a cell collector and the thymidine incorporation was determined using a beta cell counter.
(§5) For each experiment, the mean tritiated thymidine incorporations (mean values determined on three culture wells) were plotted against the logarithmic concentrations of the compound. The curves were fitted with exponential regression, which was determined using the concentrations defining the inhibition response (usually 3-4 concentrations).
(§6) The concentrations yielding 50% and 90% inhibition of the proliferation of myeloma cells were determined with these regression curves.
(§7) The concentration yielding 10% (IC10) or 50% (IC50) inhibition of the myeloma cell lines were determined and the data are listed in Table 2.
(§8) Compound A was tested in combination with melphalan or Velcade. Increasing concentration of compound A (0, 0.01, 0.03, 0.12, 0.37, 1.1, 3.1, 10, 30 μM) were applied on 4 myeloma cell lines alone or in combination with Velcade or melphalan at concentration yielding around 10% or 50% inhibition.

In assay [2] the test system is XG7 myeloma cell line. As to the kind of experiment: Cell proliferation assay (tritiated thymidine incorporation), XG7. As to conditions: Homo sapiens, XG7, alone or with fixed Velcade/Melphalan. The protocol:
as §1, §2, §3, §4, §5, §6, §7, §8
In general terms: Incorporation of labelled thymidine or its analogues reports DNA synthesis.

Assay [3] has as its system XG-3 myeloma cell line. Description: Cell cycle measurement (BrdU/PI, S phase), XG-3. As to conditions: day 3 of culture. The protocol:
The cell cycle distribution of the cell lines was assessed by flow cytometry analysis by propidium iodide (PI) and bromodeoxyuridine (BrdU) double-staining. Thirty minutes before stopping the culture, BrdU (10 μM) were added to the cultures and then the cells were collected by centrifugation, washed twice in phosphate buffer saline (PBS) and fixed in 70% ethanol for 20 minutes at room temperature. After two washes with PBS, cells were resuspended in 50 μL of 3N HCl, 0.5% Tween 20 and incubated 20 minutes at 20° C. to denature DNA. The cells were then recovered by centrifugation, resuspended in 250 μL of 10 mM sodium tetraborate to neutralize the reaction, washed twice with PBS, 0.05% Tween 20, and incubated with 20 μL of anti-BrdU-FITC (BD Biosciences). After two additional washes, the cells were resuspended in 500 μL of PBS, 0.05% Tween 20 containing 10 μg/ml PI. The fluorescence of FL1-H (BrdU) and FL2-A (PI) were analyzed on a FACScan flow cytometer using Cell Quest software (Becton Dickinson).
Two myeloma cell lines (XG-3 and XG-12) that are sensitive to compound A (1-(4-{4-[4-(4-chlorophenyl)-pyrimidin-2-ylamino]-benzoyl}-piperazin-1-yl)-ethanone) were selected for the study. To assess the effect of compound A on myeloma cell survival, the percentage apoptotic cells was determined using binding of annexin V to apoptotic cells. The effect of compound A on the cell cycle was assessed by evaluating the percentage of cells in the S phase of the cell cycle by incorporation of BrdU-FITC. Apoptosis, cell cycle and cell numeration were evaluated daily on a four day culture period on the cell lines using the IC10, IC50 and I90 respective doses of compound A.

Assay [4] relates to CD138+ primary myeloma cells. Description: Ex vivo survival of primary myeloma cells in bone marrow culture. As to conditions: bone marrow cells of 10 myeloma patients, 5 days, 1, 3.3, 10 μM. The protocol:
Bone marrow cells from 10 patients with multiple myeloma (5 patients at diagnosis and 5 relapsing patients) were harvested and mononuclear cells isolated by ficoll hypaque centrifugation.
At day 5, cell numbers were counted and the percentage and counts of myeloma cells were determined by FACS staining using an anti-CD138 monoclonal antibody. This made it possible to assay for viable myeloma cells as CD138 is lost on pre-apoptotic myeloma cells (Jourdan, M. et al. (1998) Br. J. Haematol., 100, 637-648). The percentage and count of CD34 hematopoietic progenitors was also determined with an anti-CD34 monoclonal antibody and FACS labeling.
Bone marrow mononuclear cells from 5 patients with newly diagnosed multiple myeloma or from 5 patients with relapsing multiple myeloma were cultured for 5 days with culture medium and 10% fetal calf serum. […] At the end of culture, cells were counted. Viable myeloma cells were determined using FACS labeling with anti-CD138 monoclonal antibody, as well as viable hematopoietic stem cells using an anti-CD34 monoclonal antibody. Results are expressed as the percentage of viable myeloma cells, non-myeloma cells, or CD34 cells compared to the control culture group without inhibitor.

Assay [5] relates to 4 myeloma cell lines. As to the kind of experiment: Combination study of compound A with Velcade or melphalan, proliferation. Conditions: XG3, XG12, XG7, L363. The protocol: as §1, §2, §3
Cells were cultured for 4 days. […] Cells were then extracted with a cell collector and the thymidine incorporation was determined using a beta cell counter. […]

Where [6] appears, read: concentration of compound A yielding 50% inhibition of proliferation, read-out: IC50.
The mark [7] stands for this setting: concentration of compound A yielding 90% inhibition of proliferation.

In the case of `CC(=O)N1CCN(C(=O)c2ccc(Nc3nccc(-c4ccc(Cl)cc4)n3)cc2)CC1` [Compound A, 1-(4-{4-[4-(4-Chloro-phenyl)-pyrimidin-2-ylamino]-benzoyl}-piperazin-1-yl)-ethanone], the IC50 was 974 nM in assay [1] (setting [6]) and 6.36 µM in assay [2] (setting [6]). In addition, the IC90 in assay [1] (setting [7]) turned out to be 3.92 µM; in assay [2] (setting [7]), 9.33 µM. Also, the “S phase (%) percentage of cells in the S phase” value in assay [3] (XG-3, compound A at IC10 concentration) was determined as 32.1%; in assay [3] (XG-3, compound A at IC50 concentration), 29.2%; in assay [3] (XG-3, compound A at IC90 concentration) it was 15.3%. Besides, the “survival of primary myeloma cells” value in assay [4] is recorded as “inhibits the survival of primary myeloma cells”. Moreover, in assay [5] (Melphalan at IC10 or IC50), the “effect of combination with Melphalan on inhibition of myeloma cell proliferation” value was “additive effect”. For the same compound, the “effect of combination with Velcade on inhibition of myeloma cell proliferation” value in assay [5] (Velcade at IC10 or IC50) was “additive effect”.

Source of the values: patent US20100069316A1, “TREATMENT FOR MULTIPLE MYELOMA” (Ares Trading S.A., priority 2006, published 2010).
